Reference: PMC10498151 (RSC Advances, 2023)
≈ marks a conversion by molar mass, not a printed value. Read-outs that look alike come from different tables or passages of the source.

Assays:
Finegoldia magna (CI) = experiment: microbe, parasite or virus in culture; assay type: cell-based
Prevotella spp. = assay type: cell-based
[1] = test system: Actinomyces odontolyticus (CI); assay type: cell-based
[2] = determined in PBS buffer ref 47; cited from earlier work
Clostridium perfringens = assay type: cell-based
Clostridium difficile = experiment: microbe, parasite or virus in culture; assay type: cell-based
[3] = test system: Porphyromonas gingivalis (ATCC 33277); experiment: microbe, parasite or virus in culture; assay type: cell-based
Bacteroides fragilis = experiment: microbe, parasite or virus in culture; assay type: cell-based
[4] = test system: Clostridium sordellii (CI); assay type: cell-based
Fusobacterium nucleatum = experiment: microbe, parasite or virus in culture; assay type: cell-based
[5] = test system: Other Bacteroides spp. and Parabacteroides; assay type: cell-based, Bacteroides spp. and Parabacteroides distasonis
[6] = test system: Parvimonas micra (ATCC 3870); experiment: microbe, parasite or virus in culture; assay type: cell-based
Porphyromonas sp. (CI) = experiment: microbe, parasite or virus in culture; assay type: cell-based
[7] = cited from earlier work
[8] = test system: Eggerthella lenta (ATCC 43055); experiment: microbe, parasite or virus in culture; assay type: cell-based; details: ATCC43055
[9] = test system: Peptostreptococcus anaerobius (CI); experiment: microbe, parasite or virus in culture; assay type: cell-based
[10] = test system: Clostridium sporogenes (ATCC 3584); experiment: microbe, parasite or virus in culture; assay type: cell-based; details: ATCC3584
[11] = test system: Bacteroides thetaiotaomicron (ATCC 29148); experiment: microbe, parasite or virus in culture; assay type: cell-based; details: ATCC29148
[12] = test system: Porphyromonas asaccharolytica (CI); experiment: microbe, parasite or virus in culture; assay type: cell-based
[13] = test system: Bacteroides ovatus (ATCC 84834); experiment: microbe, parasite or virus in culture; assay type: cell-based; details: ATCC84834
[14] = test system: Clostridium butyricum (CI); experiment: microbe, parasite or virus in culture; assay type: cell-based
[15] = test system: Prevotella intermedia/nigres-cens (ATCC 25611); experiment: microbe, parasite or virus in culture; assay type: cell-based, Prevotella intermedia/nigrescens; details: ATCC25611
Cutibacterium acnes = experiment: microbe, parasite or virus in culture; assay type: cell-based
Fusobacterium mortiferum = experiment: microbe, parasite or virus in culture; assay type: cell-based
C. difficile = C. difficile infection, review ref 25; cited from earlier work
[16] = Clostridioides difficile, ATCC43255
[17] = Porphyromonas gingivalis, ATCC33277
[18] = Bacteroides fragilis, ATCC25285
[19] = Fusobacterium nucleatum, ATCC25586

| Compound | Selectivity index (>100 μg mL^−1/MIC90) (Prevotella spp.) | Selectivity index (>100 μg mL^−1/MIC90) (Clostridium perfringens) | Selectivity index (>100 μg mL^−1/MIC90) (Bacteroides fragilis) | Selectivity index (>100 μg mL^−1/MIC90) (Fusobacterium nucleatum) | Selectivity index (>100 μg mL^−1/MIC90) [5] | MIC (Finegoldia magna (CI); Finegoldia magna) | MIC [8] | MIC [9] | MIC (Clostridium difficile; [16]) | MIC (Bacteroides fragilis; [18]) | MIC (Fusobacterium nucleatum; [19]) | MIC [10] | MIC [11] | MIC [12] | MIC [13] | MIC ([6]; Parvimonas micra, ATCC3870) | MIC [14] | MIC [15] | MIC (Porphyromonas sp. (CI); Porphyromonas) | other results |
| --- | --- | --- | --- | --- | --- | --- | --- | --- | --- | --- | --- | --- | --- | --- | --- | --- | --- | --- | --- | --- |
| 5-phenyl-2,3-dihydropyrimidoquinoxaline N-oxide [1a] | >100 | >6 | >100 | >100 | >100 |  |  |  |  |  |  |  |  |  |  |  |  |  |  | MIC (Finegoldia magna (CI)): 2 µg/mL; Cell viability (RAW 264.7 cells): 98%; MIC [1]: 32 µg/mL; logP: experimental log of the octanol/water partition coefficient [2]: −0.149; MIC (Clostridium difficile): 4 µg/mL; Selectivity index (>100 μg mL^−1/MIC90) (Clostridium difficile): >25; MIC [3]: ≤0.06 µg/mL; MIC (Bacteroides fragilis): 1 µg/mL; MIC [4]: 16 µg/mL; MIC (Fusobacterium nucleatum): 0.125 µg/mL; MIC [6]: 0.125 µg/mL; MIC (Porphyromonas sp. (CI)): 0.125 µg/mL |
| O=[N+]([O-])c1ccc(C2=NCCCN2c2ccccc2)cc1 [1-phenyl-2-4-nitrophenyl-1,4,5,6-tetrahydropyrimidine] |  |  |  |  |  |  |  |  |  |  |  |  |  |  |  |  |  |  |  | pKa [7]: 10.51 |
| [O-][N+]1=C(c2ccc(Cl)cc2)C2=NCCN2c2ccccc21 [1j, 4-(4-Chlorophenyl)-1,2-dihydroimidazo[1,2-a]quinoxaline 5-oxide] | >1667 | >100 | >800 | >800 | >800 | 0.25 µg/mL (≈ 0.84 µM) | ≤ 0.06 µg/mL | 0.25 µg/mL (≈ 0.84 µM) | 0.25 µg/mL (≈ 0.84 µM) | 0.125 µg/mL (≈ 0.42 µM) | ≤ 0.06 µg/mL | 0.25 µg/mL (≈ 0.84 µM) | 0.125 µg/mL (≈ 0.42 µM) | ≤ 0.06 µg/mL | 0.125 µg/mL (≈ 0.42 µM) | ≤ 0.06 µg/mL | ≤ 0.06 µg/mL | ≤ 0.06 µg/mL | ≤ 0.06 µg/mL | logP: experimental log of the octanol/water partition coefficient [2]: 1.292; MIC [3, 17]: ≤ 0.06 µg/mL |
| O=[N+]([O-])c1ccc(C2=[N+]([O-])c3ccccc3N3CCN=C23)cc1 [1k, 4-(4-Nitrophenyl)-1,2-dihydroimidazo[1,2-a]quinoxaline 5-oxide] | >1667 | >800 | >1667 | >1667 | >1667 | 1 µg/mL (≈ 3.24 µM) | ≤ 0.06 µg/mL | ≤ 0.06 µg/mL | ≤ 0.06 µg/mL | ≤ 0.06 µg/mL | ≤ 0.06 µg/mL | ≤ 0.06 µg/mL | ≤ 0.06 µg/mL | ≤ 0.06 µg/mL | ≤ 0.06 µg/mL | ≤ 0.06 µg/mL | ≤ 0.06 µg/mL | ≤ 0.06 µg/mL | ≤ 0.06 µg/mL | Selectivity index (IS) (RAW 264.7 cells): > 800; Selectivity index (>100 μg mL^−1/MIC90) (Clostridium difficile): >1667; MIC (Cutibacterium acnes): 32 µg/mL (≈ 104 µM) |
| Cc1ncc([N+](=O)[O-])n1CCO [Mtz, metronidazole, reference compound] |  |  |  |  |  | 0.125 µg/mL (≈ 0.73 µM) | 0.25 µg/mL (≈ 1.46 µM) | 0.125 µg/mL (≈ 0.73 µM) | 0.25 µg/mL (≈ 1.46 µM) | 0.25 µg/mL (≈ 1.46 µM) | 0.125 µg/mL (≈ 0.73 µM) | 0.25 µg/mL (≈ 1.46 µM) | 1 µg/mL (≈ 5.84 µM) | 0.25 µg/mL (≈ 1.46 µM) | 1 µg/mL (≈ 5.84 µM) | 0.125 µg/mL (≈ 0.73 µM) | ≤ 0.06 µg/mL | 1 µg/mL (≈ 5.84 µM) | 0.125 µg/mL (≈ 0.73 µM) | MIC (Fusobacterium mortiferum): 0.25 µg/mL (≈ 1.46 µM); recurrence after treatment (C. difficile): 27.1%; treatment failure (C. difficile): 22.4%; MIC (Cutibacterium acnes): > 64 µg/mL; MIC [3, 17]: ≤ 0.06 µg/mL |
| O=[N+]([O-])c1ccc(C2=NCCN2c2ccccc2)cc1 [its imidazoline homologue] |  |  |  |  |  |  |  |  |  |  |  |  |  |  |  |  |  |  |  | pKa [7]: 7.65 |
| CN[C@H](CC(C)C)C(=O)N[C@H]1C(=O)N[C@@H](CC(N)=O)C(=O)N[C@H]2C(=O)N[C@H]3C(=O)N[C@H](C(=O)N[C@H](C(=O)O)c4cc(O)cc(O)c4-c4cc3ccc4O)[C@H](O)c3ccc(c(Cl)c3)Oc3cc2cc(c3O[C@@H]2O[C@H](CO)[C@@H](O)[C@H](O)[C@H]2O[C@H]2C[C@](C)(N)[C@H](O)[C@H](C)O2)Oc2ccc(cc2Cl)[C@H]1O [vancomycin] |  |  |  |  |  |  |  |  |  |  |  |  |  |  |  |  |  |  |  | recurrence after treatment (C. difficile): 24.0%; treatment failure (C. difficile): 14.2% |
